According to patent US12435060B2, “Acylamino bridged heterocyclic compound, and composition and application thereof” (BEIJING SCITECH-MQ PHARMACEUTICALS LIMITED, priority 2019, dated 2025):

test system: HT29 cells; assay: Inhibition of cell necrosis (CCK8 method), induced programmed necrosis of HT29 cells; assay type: cell-based; conditions: Homo sapiens, HT-29; rescue from necrosis induced by TNF-α 20 ng/mL, AT-406 1 μM, Z-VAD-FMK 20 μM; 16-20 hours; CCK-8, OD 450 nm
Method in brief: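 HT29 cells in McCOY's 5A with 10% FBS were pre-treated for 30 min with compound (9 fourfold steps, 25000 to 0.38 nM final, 0.25% DMSO). Necrosis was then induced with TNF-α 20 ng/mL, AT-406 1 μM and Z-VAD-FMK 20 μM for 16-20 h. Viability was read by CCK-8 OD450, normalized between uninduced and induced wells, and IC50 was curve-fitted.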

**Q.** Which IC50 does the source give for `O=C(Nc1cc(-c2cc(OCCC3CCOCC3)ccc2Cl)c(Cl)cn1)c1nnc(Cc2ccccc2F)[nH]1` [Example 430, N-(5-chloro-4-(2-chloro-5-(2-(tetrahydro-2H-pyran-4-yl)ethoxy)phenyl)pyridin-2-yl)-5-(2-fluorobenzyl)-4H-1,2,4-triazole-3-carboxamide] here?
**A.** 100 to 1000 nM

**Q.** With `O=C(Nc1cc(-c2cc(OCCC3CCOCC3)ccc2Cl)c(Cl)cn1)c1nnc(CC2CCCCC2)[nH]1` [Example 431, N-(5-chloro-4-(2-chloro-5-(2-(tetrahydro-2H-pyran-4-yl)ethoxy)phenyl)pyridin-2-yl)-5-(cyclohexylmethyl)-4H-1,2,4-triazole-3-carboxamide] as the compound, how does the IC50 read?
**A.** 100 to 1000 nM

**Q.** How did the IC50 turn out when `Cc1ccc(OCCCC(C)(C)O)cc1-c1cc(NC(=O)c2nnc(Cc3ccccc3)[nH]2)ncn1` [Example 432, 5-benzyl-N-(6-(5-((4-hydroxy-4-methylpentyl)oxy)-2-methylphenyl)pyrimidin-4-yl)-4H-1,2,4-triazole-3-carboxamide] was run?
**A.** ≤ 100 nM

**Q.** With `Cc1ccc(OCCCC(C)(C)O)cc1-c1cc(NC(=O)c2nnc(Cc3ccccc3F)[nH]2)ncn1` [Example 433, 5-(2-fluorobenzyl)-N-(6-(5-((4-hydroxy-4-methylpentyl)oxy)-2-methylphenyl)pyrimidin-4-yl)-4H-1,2,4-triazole-3-carboxamide] as the compound, how does the IC50 read?
**A.** ≤ 100 nM

**Q.** With `Cc1ccc(OCCCC(C)(C)O)cc1-c1cc(NC(=O)c2nnc(Cc3cccc(F)c3)[nH]2)ncn1` [Example 434, 5-(3-fluorobenzyl)-N-(6-(5-((4-hydroxy-4-methylpentyl)oxy)-2-methylphenyl)pyrimidin-4-yl)-4H-1,2,4-triazole-3-carboxamide] as the compound, how does the IC50 read?
**A.** ≤ 100 nM

**Q.** Which IC50 does the source give for `Cc1ccc(OCCCC(C)(C)O)cc1-c1cc(NC(=O)c2nnc(Cc3ccc(F)cc3F)[nH]2)ncn1` [Example 435, 5-(2,4-difluorobenzyl)-N-(6-(5-((4-hydroxy-4-methylpentyl)oxy)-2-methylphenyl)pyrimidin-4-yl)-4H-1,2,4-triazole-3-carboxamide] here?
**A.** ≤ 100 nM

**Q.** For `Cc1ccc(OCCCC(C)(C)O)cc1-c1cc(NC(=O)c2nnc(Cc3cc(F)ccc3F)[nH]2)ncn1` [Example 436, 5-(2,5-difluorobenzyl)-N-(6-(5-((4-hydroxy-4-methylpentyl)oxy)-2-methylphenyl)pyrimidin-4-yl)-4H-1,2,4-triazole-3-carboxamide], which IC50 is on record?
**A.** ≤ 100 nM

**Q.** `Cc1ccc(OCCCC(C)(C)O)cc1-c1cc(NC(=O)c2nnc(Cc3cc(F)cc(F)c3)[nH]2)ncn1` [Example 437, 5-(3,5-difluorobenzyl)-N-(6-(5-((4-hydroxy-4-methylpentyl)oxy)-2-methylphenyl)pyrimidin-4-yl)-4H-1,2,4-triazole-3-carboxamide] was tested. Which IC50 did it give?
**A.** 100 to 1000 nM

**Q.** For `Cc1ccc(OCCCC(C)(C)O)cc1-c1cc(NC(=O)c2nnc(Cc3cccc(Cl)c3F)[nH]2)ncn1` [Example 438, 5-(3-chloro-2-fluorobenzyl)-N-(6-(5-((4-hydroxy-4-methylpentyl)oxy)-2-methylphenyl)pyrimidin-4-yl)-4H-1,2,4-triazole-3-carboxamide], which IC50 is on record?
**A.** 100 to 1000 nM

**Q.** `Cc1ccc(OCCCC(C)(C)O)cc1-c1cc(NC(=O)c2nnc(CC3CCCC3)[nH]2)ncn1` [Example 439, 5-(cyclopentylmethyl)-N-(6-(5-((4-hydroxy-4-methylpentyl)oxy)-2-methylphenyl)pyrimidin-4-yl)-4H-1,2,4-triazole-3-carboxamide] was tested. Which IC50 did it give?
**A.** ≤ 100 nM

**Q.** `Cc1ccc(OCCCC(C)(C)O)cc1-c1cc(NC(=O)c2nnc(CC3CCCCC3)[nH]2)ncn1` [Example 440, 5-(cyclohexylmethyl)-N-(6-(5-((4-hydroxy-4-methylpentyl)oxy)-2-methylphenyl)pyrimidin-4-yl)-4H-1,2,4-triazole-3-carboxamide] was tested. Which IC50 did it give?
**A.** ≤ 100 nM

**Q.** Which IC50 does the source give for `Cc1ccc(OCC2CCOCC2)cc1-c1cc(NC(=O)c2nnc(Cc3ccccc3)[nH]2)ncn1` [Example 441, 5-benzyl-N-(6-(2-methyl-5-((tetrahydro-2H-pyran-4-yl)methoxy)phenyl)pyrimidin-4-yl)-4H-1,2,4-triazole-3-carboxamide] here?
**A.** ≤ 100 nM

**Q.** How did the IC50 turn out when `Cc1ccc(OCC2CCOCC2)cc1-c1cc(NC(=O)c2nnc(Cc3ccccc3F)[nH]2)ncn1` [Example 442, 5-(2-fluorobenzyl)-N-(6-(2-methyl-5-((tetrahydro-2H-pyran-4-yl)methoxy)phenyl)pyrimidin-4-yl)-4H-1,2,4-triazole-3-carboxamide] was run?
**A.** ≤ 100 nM

**Q.** How did the IC50 turn out when `Cc1ccc(OCC2CCOCC2)cc1-c1cc(NC(=O)c2nnc(CC3CCCC3)[nH]2)ncn1` [Example 443, 5-(cyclopentylmethyl)-N-(6-(2-methyl-5-((tetrahydro-2H-pyran-4-yl)methoxy)phenyl)pyrimidin-4-yl)-4H-1,2,4-triazole-3-carboxamide] was run?
**A.** ≤ 100 nM

**Q.** Which IC50 does the source give for `Cc1ccc(OCC2CCOCC2)cc1-c1cc(NC(=O)c2nnc(CC3CCCCC3)[nH]2)ncn1` [Example 444, 5-(cyclohexylmethyl)-N-(6-(2-methyl-5-((tetrahydro-2H-pyran-4-yl)methoxy)phenyl)pyrimidin-4-yl)-4H-1,2,4-triazole-3-carboxamide] here?
**A.** ≤ 100 nM

**Q.** `Cc1ccc(OCCC2CCOCC2)cc1-c1cc(NC(=O)c2nnc(Cc3ccccc3)[nH]2)ncn1` [Example 445, 5-benzyl-N-(6-(2-methyl-5-(2-(tetrahydro-2H-pyran-4-yl)ethoxy)phenyl)pyrimidin-4-yl)-4H-1,2,4-triazole-3-carboxamide] was tested. Which IC50 did it give?
**A.** ≤ 100 nM

**Q.** How did the IC50 turn out when `Cc1ccc(OCCC2CCOCC2)cc1-c1cc(NC(=O)c2nnc(Cc3ccccc3F)[nH]2)ncn1` [Example 446, 5-(2-fluorobenzyl)-N-(6-(2-methyl-5-(2-(tetrahydro-2H-pyran-4-yl)ethoxy)phenyl)pyrimidin-4-yl)-4H-1,2,4-triazole-3-carboxamide] was run?
**A.** ≤ 100 nM

**Q.** For `Cc1ccc(OCCC2CCOCC2)cc1-c1cc(NC(=O)c2nnc(CC3CCCC3)[nH]2)ncn1` [Example 447, 5-(cyclopentylmethyl)-N-(6-(2-methyl-5-(2-(tetrahydro-2H-pyran-4-yl)ethoxy)phenyl)pyrimidin-4-yl)-4H-1,2,4-triazole-3-carboxamide], which IC50 is on record?
**A.** ≤ 100 nM

**Q.** Which IC50 does the source give for `Cc1ccc(OCCC2CCOCC2)cc1-c1cc(NC(=O)c2nnc(CC3CCCCC3)[nH]2)ncn1` [Example 448, 5-(cyclohexylmethyl)-N-(6-(2-methyl-5-(2-(tetrahydro-2H-pyran-4-yl)ethoxy)phenyl)pyrimidin-4-yl)-4H-1,2,4-triazole-3-carboxamide] here?
**A.** ≤ 100 nM

**Q.** `Cc1ccc(OCCN2CCCCC2)cc1-c1cc(NC(=O)c2nnc(Cc3ccccc3F)[nH]2)ncn1` [Example 449, 5-(2-fluorobenzyl)-N-(6-(2-methyl-5-(2-(piperidin-1-yl)ethoxy)phenyl)pyrimidin-4-yl)-4H-1,2,4-triazole-3-carboxamide] was tested. Which IC50 did it give?
**A.** 100 to 1000 nM

**Q.** `CC(C)(O)CCCOc1ccc(C(F)(F)F)c(-c2cc(NC(=O)c3nnc(Cc4ccccc4)[nH]3)ncn2)c1` [Example 450, 5-benzyl-N-(6-(5-((4-hydroxy-4-methylpentyl)oxy)-2-(trifluoromethyl)phenyl)pyrimidin-4-yl)-4H-1,2,4-triazole-3-carboxamide] was tested. Which IC50 did it give?
**A.** ≤ 100 nM

**Q.** With `CC(C)(O)CCCOc1ccc(C(F)(F)F)c(-c2cc(NC(=O)c3nnc(Cc4ccccc4F)[nH]3)ncn2)c1` [Example 451, 5-(2-fluorobenzyl)-N-(6-(5-((4-hydroxy-4-methylpentyl)oxy)-2-(trifluoromethyl)phenyl)pyrimidin-4-yl)-4H-1,2,4-triazole-3-carboxamide] as the compound, how does the IC50 read?
**A.** ≤ 100 nM

**Q.** For `CC(C)(O)CCCOc1ccc(C(F)(F)F)c(-c2cc(NC(=O)c3nnc(CC4CCCC4)[nH]3)ncn2)c1` [Example 452, 5-(cyclopentylmethyl)-N-(6-(5-((4-hydroxy-4-methylpentyl)oxy)-2-(trifluoromethyl)phenyl)pyrimidin-4-yl)-4H-1,2,4-triazole-3-carboxamide], which IC50 is on record?
**A.** ≤ 100 nM

**Q.** How did the IC50 turn out when `CC(C)(O)CCCOc1ccc(C(F)(F)F)c(-c2cc(NC(=O)c3nnc(CC4CCCCC4)[nH]3)ncn2)c1` [Example 453, 5-(cyclohexylmethyl)-N-(6-(5-((4-hydroxy-4-methylpentyl)oxy)-2-(trifluoromethyl)phenyl)pyrimidin-4-yl)-4H-1,2,4-triazole-3-carboxamide] was run?
**A.** ≤ 100 nM

**Q.** Which IC50 does the source give for `O=C(Nc1cc(-c2cc(OCC3CCOCC3)ccc2C(F)(F)F)ncn1)c1nnc(Cc2ccccc2)[nH]1` [Example 454, 5-benzyl-N-(6-(5-((tetrahydro-2H-pyran-4-yl)methoxy)-2-(trifluoromethyl)phenyl)pyrimidin-4-yl)-4H-1,2,4-triazole-3-carboxamide] here?
**A.** ≤ 100 nM

**Q.** For `O=C(Nc1cc(-c2cc(OCC3CCOCC3)ccc2C(F)(F)F)ncn1)c1nnc(Cc2ccccc2F)[nH]1` [Example 455, 5-(2-fluorobenzyl)-N-(6-(5-((tetrahydro-2H-pyran-4-yl)methoxy)-2-(trifluoromethyl)phenyl)pyrimidin-4-yl)-4H-1,2,4-triazole-3-carboxamide], which IC50 is on record?
**A.** ≤ 100 nM

**Q.** `O=C(Nc1cc(-c2cc(OCC3CCOCC3)ccc2C(F)(F)F)ncn1)c1nnc(CC2CCCC2)[nH]1` [Example 456, 5-(cyclopentylmethyl)-N-(6-(5-((tetrahydro-2H-pyran-4-yl)methoxy)-2-(trifluoromethyl)phenyl)pyrimidin-4-yl)-4H-1,2,4-triazole-3-carboxamide] was tested. Which IC50 did it give?
**A.** ≤ 100 nM

**Q.** For `O=C(Nc1cc(-c2cc(OCC3CCOCC3)ccc2C(F)(F)F)ncn1)c1nnc(CC2CCCCC2)[nH]1` [Example 457, 5-(cyclohexylmethyl)-N-(6-(5-((tetrahydro-2H-pyran-4-yl)methoxy)-2-(trifluoromethyl)phenyl)pyrimidin-4-yl)-4H-1,2,4-triazole-3-carboxamide], which IC50 is on record?
**A.** ≤ 100 nM

**Q.** For `O=C(Nc1cc(-c2cc(OCCC3CCOCC3)ccc2C(F)(F)F)ncn1)c1nnc(Cc2ccccc2)[nH]1` [Example 458, 5-benzyl-N-(6-(5-(2-(tetrahydro-2H-pyran-4-yl)ethoxy)-2-(trifluoromethyl)phenyl)pyrimidin-4-yl)-4H-1,2,4-triazole-3-carboxamide], which IC50 is on record?
**A.** ≤ 100 nM
